The values that follow come from publication PMC12064818, “A general assay platform to study protein pharmacology using ligand-dependent structural dynamics” (Nature Communications, 2025).

The target of assay [1] is T1, FLuc-C-NLuc (firefly luciferase) (Photinus pyralis, UniProt P08659, form not given/L550V). Put plainly: Firefly luciferase (FLuc) enzymatic luminescence assay, FLuc-C-NLuc. Details: key to Enz: % normalized; no enzyme control = 100% inhibition, DMSO = 0. Particulars: Log[Compound]. In kind it is biochemical. The procedure: The enzyme activity of FLuc-N-HiBiT, FLuc-C-HiBiT, and FLuc-C-NLuc was measured similar to P. pyralis firefly luciferase (FLuc) as previously described. […] Compounds and controls were added to each plate as described in Supplementary Data 8 with a Hornet pintool system (Wako Automation). Compounds were incubated with respective enzymes for 30–60 min at room temperature protected from light and covered by solid metal lid to prevent evaporation. […] Luciferin was incubated with FLuc enzyme for 5 min before FLuc activity was then measured on a ViewLux CCD imager (PerkinElmer), with exposure times up to ten seconds with medium to high gain settings. Data were normalized to average no enzyme control as 100% enzyme inhibition and average DMSO neutral control. See Supplementary Table 4 for additional details.
Supplementary Table 4. Protocol for Firefly luciferase (FLuc) and NanoLuc (NLuc) enzymatic
Supplementary Table 4: Protocol for Firefly luciferase (FLuc) and NanoLuc (NLuc) enzym atic lum inescence assay
Firefly luciferase (FLuc) enzym atic lum inescence assay
Sequence Param eter Value Description
No enzym e control (colum n 1) and enzym e solution (1- 10 nM FLuc enzym e) in FLuc assay
1 Reagent 4 µLbuffer; white/solid bottom , m edium bind, high base plates (Greiner), dispensed with BioRaptr
com pounds transferred to respective colum ns with Pintool
2b Test Com pounds 23 nLconcentration range) in colum ns 5- 48; com pounds transferred to respective wells with
3 Incubation 30 m in Incubate enzym e + com pounds at am bient tem p for 30 m in, protected from light
4 Reagent 3 µLAdd 3 µL of D-luciferin substrate solution to each well (final concentration 10 µM); dispensed
5 Detector ViewLux Read plate lum inescence (Exposure = 1- 10 sec; Gain = Medium -high; Speed = Slow;
Dispensing solution was diluted in 1X PBS, pH 7.4. […]

Assay [2] addresses T1, FLuc-C-NLuc (firefly luciferase). Put plainly: SDR assay, FLuc-C-NLuc. The settings on record: Log[Compound]; for SDR+ATP: 10 mM ATP; for SDR: absence of ATP.
Another assay relates to PKA. The settings on record: annotation yes/no for kinase library compound; source not given; cited from earlier work.
The target in a further assay is PKA-N-HiBiT (Homo sapiens, UniProt P17612). Put plainly: SDR assay, PKA-N-HiBiT. Particulars: for SDR Ave Max Response: PKA-N-HiBiT qHTS, SDR assay, average maximal response.
Assay [3] concerns the target FLuc-N-HiBiT (firefly luciferase) (Photinus pyralis, UniProt P08659, form not given/L550V). Put plainly: SDR assay, FLuc-N-HiBiT. The settings on record: ATP-independent pyrazolo pyrimidine (clade P).
Assay [4] concerns the target T2, ABL1-N-HiBiT kinase domain (Homo sapiens, UniProt P00519).
T2 sequence (P00519 233-500): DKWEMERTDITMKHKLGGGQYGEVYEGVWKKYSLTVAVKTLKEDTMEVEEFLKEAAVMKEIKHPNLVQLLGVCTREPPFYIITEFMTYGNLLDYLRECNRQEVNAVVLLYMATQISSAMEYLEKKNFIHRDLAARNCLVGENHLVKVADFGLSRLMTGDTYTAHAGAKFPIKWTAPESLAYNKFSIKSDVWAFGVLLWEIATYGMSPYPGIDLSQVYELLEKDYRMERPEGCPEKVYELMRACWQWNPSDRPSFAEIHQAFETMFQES
Nature of the assay: SDR assay, ABL1-N-HiBiT. The settings on record: for SDR Ave Max Response: ABL1-N-HiBiT qHTS, average maximal SDR response. For orientation: With HiBiT, luminescence reflects the tagged protein that the partner subunit can reach.

T1 sequence (P08659 2-550 L550V, form open): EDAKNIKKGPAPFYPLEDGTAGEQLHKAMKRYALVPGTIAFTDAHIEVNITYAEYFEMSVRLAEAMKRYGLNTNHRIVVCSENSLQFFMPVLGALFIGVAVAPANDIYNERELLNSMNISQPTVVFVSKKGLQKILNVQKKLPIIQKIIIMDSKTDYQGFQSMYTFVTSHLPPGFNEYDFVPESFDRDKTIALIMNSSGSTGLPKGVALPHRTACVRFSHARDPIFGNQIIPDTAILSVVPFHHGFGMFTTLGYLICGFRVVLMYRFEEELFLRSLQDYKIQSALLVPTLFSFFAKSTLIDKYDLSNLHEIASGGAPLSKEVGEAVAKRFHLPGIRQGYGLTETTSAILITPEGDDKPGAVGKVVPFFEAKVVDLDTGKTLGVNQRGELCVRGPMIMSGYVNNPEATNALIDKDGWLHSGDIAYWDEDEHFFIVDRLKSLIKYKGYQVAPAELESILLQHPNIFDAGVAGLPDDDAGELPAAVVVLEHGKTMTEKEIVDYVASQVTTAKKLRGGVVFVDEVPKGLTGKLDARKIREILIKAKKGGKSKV
Chain of FLuc-N-HiBiT (firefly luciferase) (P08659 2-550 L550V, form open): as above

Turning to `CC1CCC(NC(=O)C2CCN(C(=O)c3ncn4c3COC(c3ccc(Cl)cc3)C4)CC2)CC1` (centres unmarked) [NCGC00449845], the Enz was -0.56 in assay [1] (M -4.48); 2.86 in assay [1] (M -4.96); 3.07 in assay [1] (M -5.44); 4.57 in assay [1] (M -5.91); 5.59 in assay [1] (M -6.39); 3.54 in assay [1] (M -6.87). Moreover, the Enz in assay [1] (M -7.35) amounted to 4.64; in assay [1] (M -7.82), 4.98; in assay [1] (M -8.30) it was 5.03; in assay [1] (M -8.78), 3.56; in assay [1] (M -9.25) it was 2.70. In addition, the “SDR+ATP” value in assay [2] (M -4.48) is 6.40; in assay [2] (M -4.96) it was 2.52; in assay [2] (M -5.44), 1.90; in assay [2] (M -5.91), 1.22; in assay [2] (M -6.39), 1.15; in assay [2] (M -6.87), -0.36. The “SDR+ATP” value was 0.68 in assay [2] (M -7.35); -0.0316 in assay [2] (M -7.82); 1.78 in assay [2] (M -8.30); 0.25 in assay [2] (M -8.78); 0.08 in assay [2] (M -9.25). Further, the SDR in assay [2] (M -4.48) was 1.49; in assay [2] (M -4.96) it was 2.34; in assay [2] (M -5.44), 1.62; in assay [2] (M -5.91), 2.01; in assay [2] (M -6.39), 2.08; in assay [2] (M -6.87), 2.37. Also, the SDR in assay [2] (M -7.35) is 2.03; in assay [2] (M -7.82), 3.50; in assay [2] (M -8.30), 4.33; in assay [2] (M -8.78) it was 3.88; in assay [2] (M -9.25) it was 3.41.
As for `COc1ccc(NC(=O)C2CCN(C(=O)c3ncn4c3COC(c3ccccc3)C4)CC2)cc1Cl` (centres unmarked) [NCGC00449919], the Enz is -93.84 in assay [1] (M -4.48); -85.33 in assay [1] (M -4.96); -72.77 in assay [1] (M -5.44); -49.98 in assay [1] (M -5.91); -32.08 in assay [1] (M -6.39); -7.65 in assay [1] (M -6.87). Besides, the Enz in assay [1] (M -7.35) is -0.43; in assay [1] (M -7.82) it was 7.65; in assay [1] (M -8.30), 6.82; in assay [1] (M -8.78), 6.26; in assay [1] (M -9.25), 2.02. Further, the “SDR+ATP” value in assay [2] (M -4.48) was determined as 74.73; in assay [2] (M -4.96), 70.92; in assay [2] (M -5.44) it was 66.79; in assay [2] (M -5.91), 50.80; in assay [2] (M -6.39), 35.23; in assay [2] (M -6.87) it was 18.65. The “SDR+ATP” value in assay [2] (M -7.35) was determined as 11.38; in assay [2] (M -7.82) it was 10.88; in assay [2] (M -8.30), 10.09; in assay [2] (M -8.78) it was 7.62; in assay [2] (M -9.25), 7.37. In addition, the SDR in assay [2] (M -4.48) is on record as 14.81; in assay [2] (M -4.96) it was 15.10; in assay [2] (M -5.44), 16.90; in assay [2] (M -5.91), 12.53; in assay [2] (M -6.39) it was 11.82; in assay [2] (M -6.87), 11.53. Moreover, the SDR in assay [2] (M -7.35) is listed as 9.61; in assay [2] (M -7.82), 14.00; in assay [2] (M -8.30) it was 12.41; in assay [2] (M -8.78) it was 12.26; in assay [2] (M -9.25), 12.55.
In the case of `O=c1cc(N2CCOCC2)nc2c3ccccc3ccn12` [Compound 401], the “Annotated PKA activity” value in the assay on PKA was “no”. The Emax amounted to 0.18% at PKA-N-HiBiT (read-out: SDR Ave Max Response) and 22.9% in assay [4] (read-out: SDR Ave Max Response). Besides, in assay [3], the “pSDR50 (clade P)” value was determined as 4.78. Besides, the “% Activity (max response)” value in assay [3] (SDR) stood at 29.04%. Also, the concentration giving a half-maximal response (EC50) in assay [4] (ABL1 SDR pSDR50, ABL1, SDR, heatmap data, 128 kinase inhibitors) was 7.41 µM; in assay [4] (SDR Ave SDR50, ABL1-N-HiBiT qHTS, average, unit inferred), 7.6 µM.
`CC(NC(=O)C1CCN(C(=O)c2ncn3c2COC(c2ccc(F)cc2)C3)CC1)c1ccc(F)cc1` (centres unmarked) [NCGC00449825]: the Enz in assay [1] (M -4.48) is listed as -1.94; in assay [1] (M -4.96), 0.62; in assay [1] (M -5.44), 4.13; in assay [1] (M -5.91), 4.09; in assay [1] (M -6.39), 3.17; in assay [1] (M -6.87) it was 4.88. For the same molecule, the Enz in assay [1] (M -7.35) is reported as 4.82; in assay [1] (M -7.82) it was 4.76; in assay [1] (M -8.30), 4.19; in assay [1] (M -8.78), 1.93; in assay [1] (M -9.25), -2.04. Moreover, the “SDR+ATP” value is listed as 5.00 in assay [2] (M -4.48); 3.92 in assay [2] (M -4.96); 2.46 in assay [2] (M -5.44); 1.09 in assay [2] (M -5.91); 1.15 in assay [2] (M -6.39); 0.36 in assay [2] (M -6.87). In addition, the “SDR+ATP” value is on record as 2.57 in assay [2] (M -7.35); 1.95 in assay [2] (M -7.82); 0.0052 in assay [2] (M -8.30); 1.06 in assay [2] (M -8.78); -0.91 in assay [2] (M -9.25). Further, the SDR in assay [2] (M -4.48) was determined as 0.68; in assay [2] (M -4.96), 1.78; in assay [2] (M -5.44), 4.05; in assay [2] (M -5.91), 3.40; in assay [2] (M -6.39) it was 4.21; in assay [2] (M -6.87) it was 3.25. The SDR in assay [2] (M -7.35) came to 4.32; in assay [2] (M -7.82) it was 4.76; in assay [2] (M -8.30) it was 4.00; in assay [2] (M -8.78), 4.68; in assay [2] (M -9.25) it was 3.86.
Mps1-IN-3: the “Annotated PKA activity” value with PKA was “no”. Further, the “SDR Ave Max Response” value was determined as 14.72 at PKA-N-HiBiT and 66.03 in assay [4]. Further, in assay [4] (ABL1, SDR, heatmap data, 128 kinase inhibitors), the “ABL1 SDR pSDR50” value was 4.80.
For the molecule `COc1cc(NC(=O)c2cccc(-n3cc(NC(=O)Nc4cccc(C)c4)cn3)c2)cc(OC)c1OC` [SR 3576], the “Annotated PKA activity” value in the assay on PKA is on record as “no”. The “SDR Ave Max Response” value at PKA-N-HiBiT worked out at 1.20; in assay [4], 6.18.

By EC50 is commonly meant the concentration at which the effect is half-maximal.
